PMC12703502, “Characterization of Novel Angiotensin-Converting Enzyme Inhibitory Peptides” (ACS Medicinal Chemistry Letters, 2025)
Read-outs that look alike come from different tables or passages of the source. Where no end group is shown, it is not given here.

Tests used:
[1] = molecular target: Angiotensin-converting enzyme (ACE) (Homo sapiens, UniProt P12821); experiment: ACE inhibition, Cushman & Cheung method with slight modifications (HHL substrate); format: biochemical
Text: Characterization of Novel Angiotensin-Converting Enzyme Inhibitory Peptides Camila Innocente-Alves1,2, Sara Luísa Sulzbach1, Emerson Gonçalves Moreira3, Raul Izidoro Carneiro3, Lucélia Santi1,2,3, Hugo Verli2,3, Walter Orlando Beys-da-Silva1,2,3* 1 Faculdade de Farmácia, Universidade Federal do Rio Grande do Sul, Porto Alegre, Brasil 2 Programa de Pós-Graduação em Biologia Celular e Molecular, Universidade Federal do Rio Grande do Sul, Porto Alegre, Brasil
3 Centro de Biotecnologia (CBiot), Universidade Federal do Rio Grande do Sul, Porto Alegre,
* corresponding author: walter.beys@ufrgs.br
Selection of the bioactive peptides
The peptides were selected from a previous virtual screening performed against our chemical library (PepDB), and evaluated in vitro for its antihypertensive potential. The structures of the peptides, […] […]
PyRosetta. […] The molecular docking result was evaluated usin g the Protein-Ligand Interaction Profile (PLIP) tool ( https://plip-tool.biotec.tu-dresden.de/) for characterization of the interactions and PyMOL ( https://www.pymol.org/) visualization. […]
The peptides were synthesized by AminoTech ( São Paulo, Brazil). […] The ability of the peptides to inhibit ACE activity was evaluated by the Cushman & Cheung method with slight modifications. Absorbances were read at 228 nm (Spectramax M2, Molecular Devices) and ACE inhibition was expressed as percentage of inhibition. […]

[2] = tested on: ACE; conditions: peony seed peptides, VLSGF vs HWS; cited from earlier work
[3] = tested on: ACE C-domain and N-domain; design: method as in 2 sources, one per row (each row's own in cited_ref): ref 22 (probable, citation mark not shown) ||| ref 20 (probable, citation mark not shown); conditions: C-domain vs N-domain; ref 22 (probable, citation mark not shown); cited from earlier work
Text: Both drugs are tripeptides-analogues and present a proline-like C-terminal extremity to interact with the S2′ pocket of ACE, which is composed of Gln281, Tyr520, Lys511, His513, and His353. […] Captopril presents a smaller structure with a sulfhydryl group at the N-terminal to interact with the zinc ion.

Sequence of Angiotensin-converting enzyme (ACE) (P12821 30-1306, species assumed): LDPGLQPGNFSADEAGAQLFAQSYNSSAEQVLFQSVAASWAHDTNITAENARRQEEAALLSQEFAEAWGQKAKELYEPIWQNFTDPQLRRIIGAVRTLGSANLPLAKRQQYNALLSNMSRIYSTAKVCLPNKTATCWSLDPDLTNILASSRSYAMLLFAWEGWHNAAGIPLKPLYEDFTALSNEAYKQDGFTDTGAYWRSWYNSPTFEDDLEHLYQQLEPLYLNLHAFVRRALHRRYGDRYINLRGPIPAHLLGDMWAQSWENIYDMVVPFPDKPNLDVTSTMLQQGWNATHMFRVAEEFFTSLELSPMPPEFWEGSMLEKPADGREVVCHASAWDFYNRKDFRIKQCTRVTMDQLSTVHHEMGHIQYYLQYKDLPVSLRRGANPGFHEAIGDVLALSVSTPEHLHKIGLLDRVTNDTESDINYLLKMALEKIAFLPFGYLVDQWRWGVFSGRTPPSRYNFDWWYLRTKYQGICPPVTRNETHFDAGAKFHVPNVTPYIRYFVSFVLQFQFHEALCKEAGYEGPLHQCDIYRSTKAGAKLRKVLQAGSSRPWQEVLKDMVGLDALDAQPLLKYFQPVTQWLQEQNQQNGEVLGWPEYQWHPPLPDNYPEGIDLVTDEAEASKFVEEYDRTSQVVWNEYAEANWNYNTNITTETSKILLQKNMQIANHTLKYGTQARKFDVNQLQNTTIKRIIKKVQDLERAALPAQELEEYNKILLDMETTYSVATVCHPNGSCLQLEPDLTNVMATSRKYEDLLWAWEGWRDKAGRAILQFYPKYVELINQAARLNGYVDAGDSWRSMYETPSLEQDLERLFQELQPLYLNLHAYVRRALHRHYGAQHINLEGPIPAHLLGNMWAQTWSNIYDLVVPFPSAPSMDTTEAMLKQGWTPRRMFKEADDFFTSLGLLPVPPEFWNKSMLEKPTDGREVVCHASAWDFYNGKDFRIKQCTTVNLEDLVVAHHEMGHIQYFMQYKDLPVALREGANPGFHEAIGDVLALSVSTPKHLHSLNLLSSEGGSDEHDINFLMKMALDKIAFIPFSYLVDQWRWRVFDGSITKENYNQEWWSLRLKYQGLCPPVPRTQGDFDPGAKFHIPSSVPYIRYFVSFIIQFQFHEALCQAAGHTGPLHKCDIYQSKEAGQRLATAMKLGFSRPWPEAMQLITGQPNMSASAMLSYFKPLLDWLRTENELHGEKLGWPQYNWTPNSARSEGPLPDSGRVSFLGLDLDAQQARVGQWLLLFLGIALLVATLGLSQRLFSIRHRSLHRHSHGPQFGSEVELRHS

**Q.** Which IC50 ([1]; Cushman & Cheung method, HHL substrate, absorbance 228 nm, at least triplicates, nonlinear regression GraphPad Prism 8.0.1, read-out: IC50) does the source give for MSFLEHFLELK [PepDB_AHP1] here?
**A.** 331 µM

**Q.** Which “relative IC50” value [2] does the source give for VLSGF here?
**A.** lower IC50

**Q.** With VWTNCYHLYPAH [PepDB_AHP4] as the compound, how does the IC50 [1] read?
**A.** 88.6 µM

**Q.** Which “affinity to ACE domains” value [3] does the source give for `NCCCC[C@H](N[C@@H](CCc1ccccc1)C(=O)O)C(=O)N1CCC[C@H]1C(=O)O` [Lisinopril] here?
**A.** higher affinity to the C-domain
